Columns and labels:
[1] = Particle size of milled aspirin by laser diffraction (MS 2000 Hydro S); type: physicochemical
Protocol: Several techniques were evaluated to determine the preferred type of milling techniques for use with aspirin in accordance with the invention. All sizes were determined using Laser Diffraction on a model MS 2000 Hydro S machine. The “d50” value is the average particle size of the milled sample, and “d90” represents the average particle size of at least 90% of the particles in the milled sample. Airjet, bead, and ball mill techniques were selected as being the most preferred in the invention because of the reliability of the techniques and the particle sizes obtained. Bead milling is less preferred because of its higher relative cost. The precipitation method and crystal synthesis also yielded small particle sizes but particles prepared using these techniques tended to agglomerate.

[2] = Compatibility: degradation products of aspirin/carbonate blends by HPLC; type: physicochemical
Protocol: The degradation products of various combinations of aspirin and various carbonates were determined for different combinations of aspirin and different grades and sources of carbonates to evaluate the compatibility and stability. Milling for about fifteen minutes appeared to slightly induce the production of free salicylic acid (FSA), but not to a significant extent. […] The results are shown in Table 3 (all blend percentages are weight percentages obtained using High Performance Liquid Chromatography (HPLC))

[3] = Air Jet Mill using helium as gas jet

Question: What does the source list for `CC(=O)Oc1ccccc1C(=O)O` [aspirin]?
Answer: Particle size of the milled aspirin, d90 ([1]; Air Jet Mill): < 10 μm; Particle size of the milled aspirin, d50 [1, 3]: < 2.6 μm; Particle size of the milled aspirin, d90 [1, 3]: < 6.6 μm; Particle size of the milled aspirin, d50 ([1]; Crystal Synthesis, no agglomeration): d50~30 μm and no agglomeration; Particle size of the milled aspirin, d50 ([1]; Crystal Synthesis, with agglomeration of milled particles): d50~5 to 10 μm, with agglomeration of milled particles; Particle size of the milled aspirin, d50 ([1]; High energy Ball Mill): d50~30-40 μm; Particle size of the milled aspirin, d50 ([1]; Planetary Ball Mill): d50~40 μm; Particle size of the milled aspirin, d50 ([1]; Precipitation Method (Solution: Ethanol + 20% ASA with 10% PVP)): d50~5 μm

Question: What does the source list for `CC(=O)Oc1ccccc1C(=O)O` [100% Aspirin-Milled 15 min]?
Answer: Acetyl Salicylic Salicylic Acid ASSA (%) [2]: 0.00%; FSA (%) (free salicylic acid) [2]: 0.00%

— patent publication US20130122098A1, “Method and composition to improve absorption of therapeutic agents” (Bayer HealthCare LLC, priority 2011, published 2013)
